Laboratory results: PubChem BioAssay AID2060893 (Molecular Pharmacology Branch, DTP, NCI, 2025)

Test system: K86415-001-R-J1-PDC complex spheroids, viability
Test: Anticancer human tumor K86415-001-R-J1-PDC patient-derived lung adenocarcinoma cell line growth inhibition [RAS]
Conditions: for IC50: curve of first compound; for viability, T/C: stronger effect = lower value
Procedure, shortened: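 Multi-cell-type spheroids: tumor cells plus HUVEC endothelial cells and mesenchymal stem cells. RAS-pathway inhibitors were combined with targeted agents, each dosed in half-log steps down from clinical Cmax, or from 10 microM when Cmax was unknown.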

[1] = second compound 0.00316 µM, first compound 0.0316 µM
[2] = second compound 0.00316 µM, first compound 0.1 µM
[3] = second compound 0.00316 µM, first compound 0.316 µM
[4] = second compound 0.00316 µM, first compound 1 µM
[5] = second compound 0.00316 µM, first compound 3.16 µM
[6] = second compound 0.00316 µM, first compound 10 µM
[7] = second compound 0.01 µM, first compound 0.0316 µM
[8] = second compound 0.01 µM, first compound 0.1 µM
[9] = second compound 0.01 µM, first compound 0.316 µM
[10] = second compound 0.01 µM, first compound 1 µM
[11] = second compound 0.01 µM, first compound 3.16 µM
[12] = second compound 0.01 µM, first compound 10 µM
[13] = second compound 0.0316 µM, first compound 0.0316 µM
[14] = second compound 0.0316 µM, first compound 0.1 µM
[15] = second compound 0.0316 µM, first compound 0.316 µM
[16] = second compound 0.0316 µM, first compound 1 µM
[17] = second compound 0.0316 µM, first compound 3.16 µM
[18] = second compound 0.0316 µM, first compound 10 µM
[19] = second compound 0.1 µM, first compound 0.0316 µM
[20] = second compound 0.1 µM, first compound 0.1 µM
[21] = second compound 0.1 µM, first compound 0.316 µM
[22] = second compound 0.1 µM, first compound 1 µM
[23] = second compound 0.1 µM, first compound 3.16 µM
[24] = second compound 0.1 µM, first compound 10 µM
[25] = second compound 0.316 µM, first compound 0.0316 µM
[26] = second compound 0.316 µM, first compound 0.1 µM
[27] = second compound 0.316 µM, first compound 0.316 µM
[28] = second compound 0.316 µM, first compound 1 µM
[29] = second compound 0.316 µM, first compound 3.16 µM
[30] = second compound 0.316 µM, first compound 10 µM
[31] = second compound 1 µM, first compound 0.0316 µM
[32] = second compound 1 µM, first compound 0.1 µM
[33] = second compound 1 µM, first compound 0.316 µM
[34] = second compound 1 µM, first compound 1 µM
[35] = second compound 1 µM, first compound 3.16 µM
[36] = second compound 1 µM, first compound 10 µM
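Further: spheroids exposed to agents for seven days before readout.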

For CC1(O)CCCC1n1c(=O)c(C(F)F)cc2cnc(NC3CCN(S(C)(=O)=O)CC3)nc21 (stereo unspecified) + C=CC(=O)N1CCN(c2nc(OCC3CCCN3C)nc3c(F)c(-c4nc(N)cc(C)c4C(F)(F)F)c(Cl)cc23)C(C)C1, the IC50 (second compound 0.00316 µM) was under 31.6 nM, the IC50 (second compound 0.01 µM) was under 31.6 nM and the IC50 (second compound 0.0316 µM) was under 31.6 nM. For the same compound, the IC50 (second compound 0.1 µM) was under 31.6 nM, the IC50 (second compound 0.316 µM) was under 31.6 nM and the IC50 (second compound 1 µM) was under 31.6 nM. The viability, T/C [1] was 14.8%, the viability, T/C [2] was 16.9% and the viability, T/C [3] was 17.3%. The viability, T/C [4] was 20.2%, the viability, T/C [5] was 28.1% and the viability, T/C [6] was 5.41%. It also gave a viability, T/C [7] of 13.1%, a viability, T/C [8] of 12.6% and a viability, T/C [9] of 12.4%. The viability, T/C [10] was 12.3%, the viability, T/C [11] was 18.6% and the viability, T/C [12] was 5.34%. For the same compound, the viability, T/C [13] was 12.2%, the viability, T/C [14] was 10.1% and the viability, T/C [15] was 10.1%. It also gave a viability, T/C [16] of 14.8%, a viability, T/C [17] of 16.2% and a viability, T/C [18] of 4.92%. For the same compound, the viability, T/C [19] was 12.1%, the viability, T/C [20] was 10.8% and the viability, T/C [21] was 10.5%. The viability, T/C [22] was 11.5%, the viability, T/C [23] was 19.4% and the viability, T/C [24] was 4.11%. The viability, T/C [25] was 11.4%, the viability, T/C [26] was 11.6% and the viability, T/C [27] was 11.4%. For the same compound, the viability, T/C [28] was 11.4%, the viability, T/C [29] was 16.2% and the viability, T/C [30] was 5.89%. For the same compound, the viability, T/C [31] was 10.4%, the viability, T/C [32] was 10.3% and the viability, T/C [33] was 13.7%. For the same compound, the viability, T/C [34] was 14.7%, the viability, T/C [35] was 18.9% and the viability, T/C [36] was 5.93%.
Compound CCN1CCN(Cc2ccc(Nc3ncc(F)c(-c4cc(F)c5nc(C)n(C(C)C)c5c4)n3)nc2)CC1 + C=CC(=O)N1CCN(c2nc(OCC3CCCN3C)nc3c(F)c(-c4nc(N)cc(C)c4C(F)(F)F)c(Cl)cc23)C(C)C1 has an IC50 (second compound 0.00316 µM) of under 3.16 nM, an IC50 (second compound 0.01 µM) of under 3.16 nM and an IC50 (second compound 0.0316 µM) of under 3.16 nM. It also gave an IC50 (second compound 0.1 µM) of under 3.16 nM, an IC50 (second compound 0.316 µM) of under 3.16 nM and an IC50 (second compound 1 µM) of under 3.16 nM. For the same compound, the viability, T/C (second compound 0.00316 µM, first compound 0.00316 µM) was 17.1%, the viability, T/C (second compound 0.00316 µM, first compound 0.01 µM) was 15.9% and the viability, T/C [1] was 13.3%. It also gave a viability, T/C [2] of 15%, a viability, T/C [3] of 18.7% and a viability, T/C [4] of 33.9%. The viability, T/C (second compound 0.01 µM, first compound 0.00316 µM) was 10.3%, the viability, T/C (second compound 0.01 µM, first compound 0.01 µM) was 11.2% and the viability, T/C [7] was 12.3%. The viability, T/C [8] was 10.7%, the viability, T/C [9] was 13.3% and the viability, T/C [10] was 24.8%. For the same compound, the viability, T/C (second compound 0.0316 µM, first compound 0.00316 µM) was 9.79%, the viability, T/C (second compound 0.0316 µM, first compound 0.01 µM) was 12.9% and the viability, T/C [13] was 11%. It also gave a viability, T/C [14] of 10.2%, a viability, T/C [15] of 11% and a viability, T/C [16] of 18.5%. It also gave a viability, T/C (second compound 0.1 µM, first compound 0.00316 µM) of 10.1%, a viability, T/C (second compound 0.1 µM, first compound 0.01 µM) of 10.5% and a viability, T/C [19] of 9.47%. The viability, T/C [20] was 8.04%, the viability, T/C [21] was 10.6% and the viability, T/C [22] was 14.2%. It also gave a viability, T/C (second compound 0.316 µM, first compound 0.00316 µM) of 9.47%, a viability, T/C (second compound 0.316 µM, first compound 0.01 µM) of 8.55% and a viability, T/C [25] of 9.15%. The viability, T/C [26] was 9.51%, the viability, T/C [27] was 12.2% and the viability, T/C [28] was 17.6%. It also gave a viability, T/C (second compound 1 µM, first compound 0.00316 µM) of 9.7%, a viability, T/C (second compound 1 µM, first compound 0.01 µM) of 11.8% and a viability, T/C [31] of 11.7%. For the same compound, the viability, T/C [32] was 10.2%, the viability, T/C [33] was 11.2% and the viability, T/C [34] was 18.3%.
C[C@@H](NC(=O)c1ncnc(N)c1Cl)c1ncc(C(=O)Nc2cc(C(F)(F)F)c(Cl)cn2)s1 + C=CC(=O)N1CCN(c2nc(OCC3CCCN3C)nc3c(F)c(-c4nc(N)cc(C)c4C(F)(F)F)c(Cl)cc23)C(C)C1 gave an IC50 (second compound 0.00316 µM) of under 31.6 nM, an IC50 (second compound 0.01 µM) of under 31.6 nM and an IC50 (second compound 0.0316 µM) of under 31.6 nM. The IC50 (second compound 0.1 µM) was under 31.6 nM, the IC50 (second compound 0.316 µM) was under 31.6 nM and the IC50 (second compound 1 µM) was under 31.6 nM. It also gave a viability, T/C [1] of 24.3%, a viability, T/C [2] of 23.5% and a viability, T/C [3] of 23.3%. The viability, T/C [4] was 25.3%, the viability, T/C [5] was 19% and the viability, T/C [6] was 17.7%. For the same compound, the viability, T/C [7] was 14.8%, the viability, T/C [8] was 14.6% and the viability, T/C [9] was 14.2%. For the same compound, the viability, T/C [10] was 14.6%, the viability, T/C [11] was 20% and the viability, T/C [12] was 14%. For the same compound, the viability, T/C [13] was 12%, the viability, T/C [14] was 11.7% and the viability, T/C [15] was 10.3%. For the same compound, the viability, T/C [16] was 10.8%, the viability, T/C [17] was 11.4% and the viability, T/C [18] was 10.2%. For the same compound, the viability, T/C [19] was 13.1%, the viability, T/C [20] was 10.6% and the viability, T/C [21] was 14.1%. The viability, T/C [22] was 10.8%, the viability, T/C [23] was 9.5% and the viability, T/C [24] was 9.83%. For the same compound, the viability, T/C [25] was 10.6%, the viability, T/C [26] was 11.1% and the viability, T/C [27] was 10.8%. The viability, T/C [28] was 10.8%, the viability, T/C [29] was 10.5% and the viability, T/C [30] was 10.7%. The viability, T/C [31] was 10.6%, the viability, T/C [32] was 13% and the viability, T/C [33] was 13.4%. It also gave a viability, T/C [34] of 11.6%, a viability, T/C [35] of 10.8% and a viability, T/C [36] of 11.1%.
